According to the NIST ThermoML archive (doi:10.1021/je060271a):
Numbers after ± are expanded uncertainties.

Settings: 323.15 K, Liquid, Vibrating tube method

CCCC(=O)OCC(COC(=O)CCC)(COC(=O)CCC)COC(=O)CCC [pentaerythritol tetrabutyrate]
Settings	mass density [kg/m3]
6544.6 kPa	1029.7 ± 1.2
6573.1 kPa	1029.6 ± 1.2
6601.4 kPa	1029.8 ± 1.2
6630.4 kPa	1029.8 ± 1.2
6664.6 kPa	1029.8 ± 1.2
6693.3 kPa	1029.7 ± 1.2
6722.9 kPa	1029.8 ± 1.2
6752.8 kPa	1029.7 ± 1.2
6788.3 kPa	1029.8 ± 1.2
6819.1 kPa	1029.9 ± 1.2
6850.5 kPa	1029.9 ± 1.2
6881.6 kPa	1030 ± 1.2
6918.6 kPa	1030 ± 1.2
6950.2 kPa	1029.9 ± 1.2
6982.9 kPa	1030 ± 1.2
7021.5 kPa	1030 ± 1.2
7051.8 kPa	1029.9 ± 1.2
7078.5 kPa	1030 ± 1.2
7111.5 kPa	1030.1 ± 1.2
7138.8 kPa	1030.1 ± 1.2
7165.9 kPa	1030.2 ± 1.2
7198.9 kPa	1030.1 ± 1.2
7227.1 kPa	1030.2 ± 1.2
7255.4 kPa	1030.1 ± 1.2
7284.6 kPa	1030.2 ± 1.2
7319.5 kPa	1030.1 ± 1.2
7348.8 kPa	1030.3 ± 1.2
7378.7 kPa	1030.3 ± 1.2
7408.9 kPa	1030.2 ± 1.2
7446.2 kPa	1030.3 ± 1.2
7476.6 kPa	1030.3 ± 1.2
7507.3 kPa	1030.3 ± 1.2
7538.2 kPa	1030.3 ± 1.2
7569.8 kPa	1030.5 ± 1.2
7607.4 kPa	1030.5 ± 1.2
7638.7 kPa	1030.6 ± 1.2
7671.1 kPa	1030.6 ± 1.2
7709.5 kPa	1030.4 ± 1.2
7742.2 kPa	1030.6 ± 1.2
7775.2 kPa	1030.6 ± 1.2
7809.6 kPa	1030.6 ± 1.2
7843.9 kPa	1030.6 ± 1.2
7885.3 kPa	1030.6 ± 1.2
7920.5 kPa	1030.6 ± 1.2
7953.8 kPa	1030.7 ± 1.2
7983 kPa	1030.8 ± 1.2
8018.4 kPa	1030.7 ± 1.2
8049.1 kPa	1030.6 ± 1.2
8080.2 kPa	1030.7 ± 1.2
8117.6 kPa	1030.9 ± 1.2
8149.2 kPa	1030.7 ± 1.2
8176.4 kPa	1030.7 ± 1.2
8203 kPa	1030.9 ± 1.2
8233.4 kPa	1031 ± 1.2
8258.9 kPa	1030.8 ± 1.2
8285.5 kPa	1030.9 ± 1.2
8312 kPa	1031.1 ± 1.2
8343.3 kPa	1030.9 ± 1.2
8369.3 kPa	1030.9 ± 1.2
8401.7 kPa	1031.1 ± 1.2
8428.3 kPa	1031.1 ± 1.2
8455.7 kPa	1031 ± 1.2
8482.6 kPa	1031.1 ± 1.2
8515.8 kPa	1031.2 ± 1.2
8543.4 kPa	1031.1 ± 1.2
8571.8 kPa	1031.1 ± 1.2
8605.3 kPa	1031.2 ± 1.2
8634.6 kPa	1031.2 ± 1.2
8664.9 kPa	1031.3 ± 1.2
8693.6 kPa	1031.2 ± 1.2
8722 kPa	1031.2 ± 1.2
8757 kPa	1031.2 ± 1.2
8785.7 kPa	1031.2 ± 1.2
8815.3 kPa	1031.3 ± 1.2
8851 kPa	1031.3 ± 1.2
8880.8 kPa	1031.3 ± 1.2
8916.7 kPa	1031.4 ± 1.2
8947.2 kPa	1031.4 ± 1.2
8977.7 kPa	1031.5 ± 1.2
9015.1 kPa	1031.4 ± 1.2
9048.4 kPa	1031.5 ± 1.2
9079.8 kPa	1031.5 ± 1.2
9105.3 kPa	1031.6 ± 1.2
9137.4 kPa	1031.5 ± 1.2
9181.7 kPa	1031.6 ± 1.2
9214.1 kPa	1031.5 ± 1.2
9239.9 kPa	1031.6 ± 1.2
9278.9 kPa	1031.6 ± 1.2
9312 kPa	1031.6 ± 1.2
9352.1 kPa	1031.7 ± 1.2
9391.1 kPa	1031.5 ± 1.2
9424.9 kPa	1031.7 ± 1.2
9459.7 kPa	1031.8 ± 1.2
9501.9 kPa	1031.8 ± 1.2
9536.7 kPa	1031.9 ± 1.2
9571.9 kPa	1031.8 ± 1.2
9607.4 kPa	1031.8 ± 1.2
9650.6 kPa	1031.8 ± 1.2
9687.7 kPa	1031.8 ± 1.2
9732.6 kPa	1032 ± 1.2
9765 kPa	1032 ± 1.2
9791.2 kPa	1032 ± 1.2
9822.2 kPa	1031.9 ± 1.2
9848.9 kPa	1032.1 ± 1.2
9875.6 kPa	1032.1 ± 1.2
9907.5 kPa	1032 ± 1.2
9935 kPa	1032 ± 1.2
9961.9 kPa	1032.1 ± 1.2
9989 kPa	1032.1 ± 1.2
10021 kPa	1032.1 ± 1.2
10048 kPa	1032.1 ± 1.2
10082 kPa	1032.2 ± 1.2
10110 kPa	1032.1 ± 1.2
10138 kPa	1032.2 ± 1.2
10166 kPa	1032.2 ± 1.2
10200 kPa	1032.2 ± 1.2
10228 kPa	1032.2 ± 1.2
10262 kPa	1032.2 ± 1.2
10292 kPa	1032.4 ± 1.2
10321 kPa	1032.3 ± 1.2
10356 kPa	1032.4 ± 1.2
10385 kPa	1032.5 ± 1.2
10415 kPa	1032.5 ± 1.2
10445 kPa	1032.5 ± 1.2
10481 kPa	1032.4 ± 1.2
10512 kPa	1032.5 ± 1.2
10542 kPa	1032.4 ± 1.2
10579 kPa	1032.5 ± 1.2
10610 kPa	1032.6 ± 1.2
10641 kPa	1032.6 ± 1.2
10672 kPa	1032.6 ± 1.2
10710 kPa	1032.5 ± 1.2
10742 kPa	1032.6 ± 1.2
10774 kPa	1032.6 ± 1.2
10806 kPa	1032.7 ± 1.2
10845 kPa	1032.8 ± 1.2
10877 kPa	1032.7 ± 1.2
10916 kPa	1032.7 ± 1.2
10948 kPa	1032.7 ± 1.2
10982 kPa	1032.7 ± 1.2
11022 kPa	1032.7 ± 1.2
11055 kPa	1032.8 ± 1.2
11089 kPa	1032.8 ± 1.2
11123 kPa	1032.9 ± 1.2
11165 kPa	1032.9 ± 1.2
11200 kPa	1032.8 ± 1.2
11242 kPa	1032.9 ± 1.2
11279 kPa	1033 ± 1.2
11316 kPa	1033 ± 1.2
11352 kPa	1033 ± 1.2
11384 kPa	1033.1 ± 1.2
11409 kPa	1033 ± 1.2
11434 kPa	1033.1 ± 1.2
11464 kPa	1033 ± 1.2
11489 kPa	1033.1 ± 1.2
11520 kPa	1033.2 ± 1.2
11545 kPa	1033.1 ± 1.2
11573 kPa	1033.1 ± 1.2
11598 kPa	1033.2 ± 1.2
11625 kPa	1033.2 ± 1.2
11655 kPa	1033.2 ± 1.2
11681 kPa	1033.3 ± 1.2
11713 kPa	1033.3 ± 1.2
11740 kPa	1033.2 ± 1.2
11766 kPa	1033.3 ± 1.2
11793 kPa	1033.3 ± 1.2
11825 kPa	1033.4 ± 1.2
11853 kPa	1033.3 ± 1.2
11880 kPa	1033.5 ± 1.2
11914 kPa	1033.4 ± 1.2
11944 kPa	1033.4 ± 1.2
11971 kPa	1033.4 ± 1.2
11999 kPa	1033.4 ± 1.2
12033 kPa	1033.4 ± 1.2
12061 kPa	1033.5 ± 1.2
12089 kPa	1033.5 ± 1.2
12122 kPa	1033.6 ± 1.2
12151 kPa	1033.6 ± 1.2
12180 kPa	1033.6 ± 1.2
12214 kPa	1033.5 ± 1.2
12243 kPa	1033.7 ± 1.2
12272 kPa	1033.6 ± 1.2
12367 kPa	1033.8 ± 1.2
12397 kPa	1033.7 ± 1.2
12432 kPa	1033.7 ± 1.2
12462 kPa	1033.8 ± 1.2
12499 kPa	1033.8 ± 1.2
12530 kPa	1033.9 ± 1.2
12555 kPa	1033.8 ± 1.2
12591 kPa	1033.9 ± 1.2
12623 kPa	1033.9 ± 1.2
12660 kPa	1033.9 ± 1.2
12691 kPa	1033.9 ± 1.2
12724 kPa	1033.9 ± 1.2
12762 kPa	1033.9 ± 1.2
12794 kPa	1034.1 ± 1.2
12826 kPa	1033.9 ± 1.2
12858 kPa	1034 ± 1.2
12897 kPa	1034.1 ± 1.2
12930 kPa	1034.1 ± 1.2
12969 kPa	1034.1 ± 1.2
13003 kPa	1034.2 ± 1.2
13037 kPa	1034.3 ± 1.2
13072 kPa	1034.3 ± 1.2
13115 kPa	1034.3 ± 1.2
13152 kPa	1034.3 ± 1.2
13184 kPa	1034.2 ± 1.2
13211 kPa	1034.3 ± 1.2
13233 kPa	1034.3 ± 1.2
13255 kPa	1034.4 ± 1.2
13281 kPa	1034.4 ± 1.2
13303 kPa	1034.4 ± 1.2
13326 kPa	1034.4 ± 1.2
13352 kPa	1034.3 ± 1.2
13375 kPa	1034.4 ± 1.2
13398 kPa	1034.5 ± 1.2
13420 kPa	1034.5 ± 1.2
13447 kPa	1034.5 ± 1.2
13470 kPa	1034.5 ± 1.2
13493 kPa	1034.5 ± 1.2
13520 kPa	1034.5 ± 1.2
13543 kPa	1034.6 ± 1.2
13570 kPa	1034.5 ± 1.2
13593 kPa	1034.6 ± 1.2
13616 kPa	1034.6 ± 1.2
13639 kPa	1034.7 ± 1.2
13667 kPa	1034.5 ± 1.2
13690 kPa	1034.6 ± 1.2
13718 kPa	1034.6 ± 1.2
13742 kPa	1034.6 ± 1.2
13766 kPa	1034.7 ± 1.2
13794 kPa	1034.6 ± 1.2
13819 kPa	1034.6 ± 1.2
13843 kPa	1034.7 ± 1.2
13867 kPa	1034.7 ± 1.2
13896 kPa	1034.8 ± 1.2
13920 kPa	1034.7 ± 1.2
13945 kPa	1034.8 ± 1.2
13974 kPa	1034.9 ± 1.2
13998 kPa	1034.8 ± 1.2
14027 kPa	1034.8 ± 1.2
14052 kPa	1034.9 ± 1.2
14215 kPa	1035 ± 1.2
14240 kPa	1034.9 ± 1.2
14265 kPa	1034.9 ± 1.2
14296 kPa	1035.1 ± 1.2
14322 kPa	1035 ± 1.2
14348 kPa	1035.1 ± 1.2
14379 kPa	1035 ± 1.2
14405 kPa	1035 ± 1.2
14431 kPa	1035 ± 1.2
14462 kPa	1035.1 ± 1.2
14490 kPa	1035 ± 1.2
14518 kPa	1035.2 ± 1.2
14544 kPa	1035.1 ± 1.2
14571 kPa	1035.2 ± 1.2
14603 kPa	1035.1 ± 1.2
14630 kPa	1035.2 ± 1.2
14658 kPa	1035.3 ± 1.2
14690 kPa	1035.3 ± 1.2
14717 kPa	1035.3 ± 1.2
14749 kPa	1035.4 ± 1.2
14805 kPa	1035.4 ± 1.2
14833 kPa	1035.3 ± 1.2
14867 kPa	1035.3 ± 1.2
14895 kPa	1035.4 ± 1.2
14923 kPa	1035.5 ± 1.2
14957 kPa	1035.4 ± 1.2
14986 kPa	1035.4 ± 1.2
15014 kPa	1035.5 ± 1.2
15048 kPa	1035.6 ± 1.2
15077 kPa	1035.6 ± 1.2
15105 kPa	1035.6 ± 1.2
15140 kPa	1035.6 ± 1.2
15169 kPa	1035.7 ± 1.2
15199 kPa	1035.6 ± 1.2
15229 kPa	1035.5 ± 1.2
15265 kPa	1035.6 ± 1.2
15294 kPa	1035.6 ± 1.2
15325 kPa	1035.7 ± 1.2
15360 kPa	1035.7 ± 1.2
15390 kPa	1035.7 ± 1.2
15421 kPa	1035.8 ± 1.2
15456 kPa	1035.8 ± 1.2
15487 kPa	1035.8 ± 1.2
15517 kPa	1035.8 ± 1.2
15554 kPa	1035.8 ± 1.2
15585 kPa	1035.9 ± 1.2
15616 kPa	1035.9 ± 1.2
15653 kPa	1036 ± 1.2
15685 kPa	1035.9 ± 1.2
15716 kPa	1036 ± 1.2
15748 kPa	1036 ± 1.2
